{"source": "paper PMC2800189", "about": "“β-Neurexin Is a Ligand for the Staphylococcus aureus MSCRAMM SdrC” (PLoS Pathogens, 2010)", "key": {"SdrCN2N3 [1]": {"biological_target": "T1, SdrCN2N3 (Staphylococcus aureus, UniProt O86487)", "T1 construct": "Increasing concentrations of SdrC178-496 were incubated with 10 nM labeled peptide; His tag (N); made in house; host or cells: E. coli Topp 3", "T1 sequence (O86487 178-496)": "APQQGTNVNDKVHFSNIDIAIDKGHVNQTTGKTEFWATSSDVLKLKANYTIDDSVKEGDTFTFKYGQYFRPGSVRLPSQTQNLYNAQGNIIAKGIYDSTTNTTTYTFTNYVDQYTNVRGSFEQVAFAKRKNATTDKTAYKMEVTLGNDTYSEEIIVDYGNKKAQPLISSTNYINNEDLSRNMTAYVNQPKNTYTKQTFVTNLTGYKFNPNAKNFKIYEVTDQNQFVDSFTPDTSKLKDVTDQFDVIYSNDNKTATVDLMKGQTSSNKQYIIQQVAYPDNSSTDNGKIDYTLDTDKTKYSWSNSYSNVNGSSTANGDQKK", "assay": "Fluorescence polarization inhibition by unlabeled peptides of SdrCN2N3 binding to fluorescein-labeled spNrxwt", "set-up": "species or system S. aureus", "conditions": "0.5 µM SdrCN2N3 with unlabeled peptide 3 hours, then 3 hours with 10 nM labeled spNrxwt, room temperature; mean±SD, three experiments", "description": "After 3 hours, the mixture was incubated for another 3 hours at room temperature in the dark with 10 nM fluorescein labeled spNrxwt peptide. Fluorescence polarization was determined as described above. The values represented here are the mean±SD of triplicates from three experiments.\nTo eliminate the possibility that the binding was dependent of the fluorescein label introduced in the wild-type peptide, we tested the ability of unlabeled spNrxwt and spNrxscr to inhibit the binding of SdrCN2N3 to fluorescein-labeled spNrxwt. Increasing concentrations of unlabeled peptides were incubated with SdrCN2N3 for three hours at room temperature before the fluorescent polarization experiment was performed.\nFor inhibition assays, 0.5 µM SdrC178–496 was first incubated with increasing concentrations of unlabeled Nrxwt or unlabeled Nrxscr for 3 hours at room temperature. The mixture was then incubated for 3 hours with fluorescein-labeled Nrxwt. The results presented represent the mean±SD of three independent experiments."}, "SdrCN2N3 [2]": {"biological_target": "T1, SdrCN2N3", "format": "binding, S. aureus", "conditions": "10 nM fluorescein-labeled peptide, 3 hours, room temperature, dark", "description": "We used fluorescence polarization to determine the dissociation constant for the SdrCN2N3-Nrx1β peptide interaction. spNrxwt and spNrxscr were labeled with fluorescein and incubated with increasing concentrations of recombinant MSCRAMM.\nIncreasing concentrations of SdrCN2N3 or ClfBN2N3 (black circle) were incubated with 10 nM fluorescein-labelled spNrxwt peptide (black square) or spNrxscr peptide (black triangle) for 3 hours at room temperature in the dark. Equation ΔP = ΔPmax [protein]/(KD+[protein]) was used to calculate the equilibrium constant. […] After 3 hours, the mixture was incubated for another 3 hours at room temperature in the dark with 10 nM fluorescein labeled spNrxwt peptide. Fluorescence polarization was determined as described above. […]\nIncreasing concentrations of SdrC178-496 were incubated with 10 nM labeled peptide for 3 hours in the dark at room temperature. Polarization was measured using Luminescence Spectrometer LB50B (Perkin Elmer). The data were analyzed by non-linear regression for one binding site. The equilibrium dissociation constant was calculated using the equation ΔP = ΔPmax x [protein])/(KD + [protein]) (Eq.1) where ΔP is the change in fluorescence polarization, ΔPmax is the maximum change in fluorescence polarization and KD is the equilibrium dissociation constant of the interaction."}, "[3]": {"tested_on": "SdrCN2N3 - Nrx47-255 interaction", "assay": "Peptide inhibition of SdrCN2N3 binding to immobilized Nrx47-255", "set-up": "species or system S. aureus (SdrC)", "conditions": "0.5 µM SdrCN2N3 with increasing peptide, 2 hours, room temperature, then on immobilized Nrx47-255; mean±SD of triplicates from three experiments", "experimental": "Figure 3 Structural organization of β-neurexins. (A) A cartoon representation of β-neurexin domain structure. S, signal sequence; NL, neuroligin-binding domain; Glyc, glycosylation domain; TM, transmembrane domain; PDZ, intracellular signaling domain. Also shown, are the recombinant proteins used in this study. (B) Coomassie-stained SDS-PAGE gel of GST-tagged neurexin 1β domains recombinant proteins. Increasing concentrations of SdrCA (C) and SdrCN2N3 (D) were incubated with immobilized Nrx47-255 (black square), Nrx70–255 (black triangle) or GST (black circle) for 1 hour at room temperature. […] (E) SdrC178–496 (0.5 µM) was incubated with increasing concentrations of spNrxwt peptide (black square) or spNrxscr peptide (black triangle) at room temperature. After 2 hours, the mixture was incubated with immobilized Nrx47–255. […]\nEach well of Immulon 4BH plates was coated with 1 µg of recombinant Nrx47–255-GST, Nrx70–255-GSTor GST overnight at 4°C. […] Bound protein was detected with a polyclonal antibody (1∶3000) against SdrCN2N3 (H.T.I. BioProducts) followed by an anti-rabbit HRP-labeled antibody (1∶5000) (Bio-Rad Labs, Hercules, CA). Color development was performed using SigmaFast OPD (Sigma, St. Louis, MO) and the binding was measured using a microtiter plate reader (Molecular Devices) at 450 nm. […] The binding was analyzed by non-linear regression for one binding site (GraphPad Prism)."}, "[4]": {"biological_target": "Nrx_(47-255)-GST, recombinant neurexin 1β fragment (human) (UniProt P58400)", "sequence (P58400 47-255)": "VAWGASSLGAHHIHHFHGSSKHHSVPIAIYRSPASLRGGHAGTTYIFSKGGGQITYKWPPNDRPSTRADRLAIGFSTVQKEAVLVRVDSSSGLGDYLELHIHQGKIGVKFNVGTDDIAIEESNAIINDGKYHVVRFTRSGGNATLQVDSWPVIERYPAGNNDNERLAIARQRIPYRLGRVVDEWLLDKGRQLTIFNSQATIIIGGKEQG", "assay": "ELISA; solid phase binding assay: 1 µg/well Nrx-GST protein or GST coated on Immulon 4BH plates, increasing concentrations of SdrC protein, 1 hour at room temperature, detected with anti-SdrC_(N2N3) serum; apparent KD (concentration for half maximum binding)"}, "[5]": {"biological_target": "fluorescein-labeled spNrxwt (human)", "assay": "fluorescence polarisation; increasing concentrations of MSCRAMM with 10 nM fluorescein-labelled peptide, 3 hours at room temperature in the dark; one-site fit"}, "[6]": {"assay": "Phage display panning with immobilized SdrGN2N3 or BSA, total bound TUs", "format": "binding", "conditions": "input phage 1.5×10^11, 1 µg/well", "text": "Analysis of peptides or protein segments displaced on the surface of phage is a useful method to identify partners in protein-protein interaction systems,[17],[18],[19]. To determine if this method can be used to identify ligands for MSCRAMMs from Gram-positive bacteria, we performed a validation experiment using SdrGN2N3 as bait in a screen of a commercially available 12-mer linear library (New England Biolabs Ph.D.-12 Phage Display Peptide Library). We carried out three successive rounds of panning against immobilized SdrGN2N3. To confirm that the enrichment of the phage clones between panning rounds was the result of specific interactions, the phage pool before and after each step of amplification was also tested for binding to BSA. […] We then sequenced the DNA purified from ten phage plaques obtained after the third round of panning.\nNEB Ph.D.12-mer random library was incubated with immobilized SdrC N2N3, SdrG N2N3 or BSA at 1 µg/well. The input was 1.5×10^11 transducing units with a complexity of 2.7×10^9 electroporated sequences. The assay was performed according to the manufacturer's instructions. The output phage plaques were 10^4 transducing units. Wells were washed with 0.5% Tween in TBS buffer, blocked with 10% BSA and incubated with 1×10^8 transducing units of each amplified phage or insertless phage (fd-tet). To remove unbound phage, wells were washed 10 times with 0.5% Tween in TBS. Bound phage was detected with anti-M13-HRP antibody (GE Healthcare, Buckinghamshire, UK)."}}, "data": [{"substance": "HSHIKLHSHGHSFGHA [spNrxscr]", "values": [{"measurement": "inhibition of SdrCN2N3 binding to fluorescein-labeled spNrxwt", "setting": "SdrCN2N3 [1]", "result": "but not the spNrxscr inhibited"}, {"measurement": "binding to SdrCN2N3 by fluorescence polarization", "setting": "SdrCN2N3 [2]", "result": "did not detect a significant binding"}, {"measurement": "inhibition of SdrCN2N3-Nrx47-255 binding", "setting": "[3]", "result": "did not observe an inhibition"}]}, {"substance": "SdrC A-region, recombinant SdrC_(52-496) (from UniProt O86487 52-496) (domain or fragment)", "values": [{"measurement": "Kd", "setting": "[4]", "result": 185, "unit": "nM"}]}, {"substance": "SdrC N2N3 domain, recombinant SdrC_(178-496) (from UniProt O86487 178-496) (domain or fragment)", "values": [{"measurement": "Kd", "setting": "[5]", "result": 250, "unit": "nM"}, {"measurement": "Kd", "setting": "[4]", "result": 126, "unit": "nM"}]}, {"substance": "SdrG: fibrinogen-binding MSCRAMM of Staphylococcus epidermidis, N2N3 domain used as bait", "values": [{"measurement": "Total bound TUs", "setting": "[6]; panning 1", "result": "4×10^5 TUs"}, {"measurement": "Total bound TUs", "setting": "[6]; panning 2", "result": "3×10^7 TUs"}, {"measurement": "Total bound TUs", "setting": "[6]; panning 3", "result": "2×10^8 TUs"}]}]}
